Here are results for three compounds from PubChem BioAssay (NCI).

Assay in all cases: NCI-60 cell line screen, 48 h
The test system of assay [1] is MOLT-4 leukemia.
Assay [2] concerns EKVX NSCLC.
The test system of assay [3] is SW-620 colon.
Assay [4] concerns MALME-3M melanoma.
For assay [5], the system named is OVCAR-3 ovarian.
Assay [6] has as its system ACHN renal.
For assay [7], the system named is OVCAR-5 ovarian.
Assay [8] has as its system CAKI-1 renal.
In assay [9] the test system is RXF 393 renal.
Assay [10] deals with SR leukemia.

Each structure is given as a SMILES string.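 In this assay, cells in 96-well plates receive the compound at five concentrations for 48 hours. Endpoints are linearly interpolated between the surrounding concentrations. The concentration for 50% growth inhibition is given as GI50. TGI marks complete inhibition of growth.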

For the compound `CCN1C(=O)N(c2ccccc2)C2NC(=S)N(/N=C/C=C/c3ccccc3OC)C21` (stereo not given), the GI50 in assay [1] was 0.128 µM; in assay [2], 0.174 µM; in assay [3], 0.125 µM; in assay [4], 0.722 µM; in assay [5], 0.0778 µM; in [6], 0.134 µM. Further, the GI50 in assay [7] was 0.17 µM; in assay [8], 0.0704 µM; in [9] it was 0.916 µM; in assay [10] it was 0.086 µM. Also, the TGI was above 100 µM in assay [1]; above 100 µM in [2]; above 100 µM in assay [3]; above 100 µM in [4]; 0.221 µM in assay [5]; above 60.8 µM in assay [6]. The TGI is above 86.2 µM in assay [7], above 60.9 µM in assay [8], above 100 µM in assay [9] and above 48.5 µM in assay [10].

Consider `N#Cc1c[nH]n2c(N=Nc3ccc(Cl)cc3)c(O)nc12`, for which the GI50 is 33.7 µM in assay [1]; 31.7 µM in assay [2]; 47.9 µM in assay [3]; 41.6 µM in assay [4]; 40.3 µM in assay [5]; 24.7 µM in assay [6]. Further, the GI50 in assay [7] is 84.9 µM; in assay [8] it was 85.9 µM; in [9] it was 29.7 µM; in assay [10], 25.4 µM. The TGI in assay [1] was above 100 µM; in [2] it was 81.1 µM; in assay [3], above 100 µM; in assay [4], above 100 µM; in assay [5] it was above 100 µM; in [6], 62 µM. The TGI in assay [7], in assay [8], in [9] and in assay [10] was above 100 µM each time.

On to `CCn1c(-c2nonc2N)nc2c(C#CC(C)(C)O)nc(OC[C@@H](N)c3ccccc3)cc21`, for which the GI50 in assay [1] is 4.42 µM; in [2], 10.4 µM; in assay [3], 4.58 µM; in assay [4], 5.46 µM; in assay [5], 4.24 µM; in [6] it was 4.17 µM. Moreover, the GI50 was 7.92 µM in assay [7], 6.53 µM in [8], 2.85 µM in [9] and 5.67 µM in [10]. Also, the TGI in [1] is 16 µM; in [2], 22.4 µM; in assay [3], 9.5 µM; in assay [4] it was 9.77 µM; in [5], 8.23 µM; in assay [6], 9.42 µM. For the same compound, the TGI in assay [7] is 15.1 µM; in assay [8], 14.1 µM; in [9], 5.97 µM; in [10], 16.8 µM.
